From patent US8703964B2, “Bendamustine cyclopolysaccharide compositions” (Supratek Pharma Inc., priority 2009, dated 2014)

Experiments:
[1] = Bendamustine chemical stability in plasma, HPLC (Example 31); format: in vitro ADME; settings: heparinized human plasma, 37° C., initially 0.015 mg/mL bendamustine; read-out: T½ in plasma (decomposition half time)
Procedure: Heparinized human plasma was spiked, 20 μL into 780 μL of plasma, with the following bendamustine (BM) compositions:
The concentration of bendamustine in plasma after spiking was initially 0.015 mg/mL. The spiked plasma samples were incubated at 37° C. A sample of 50 μL was periodically withdrawn from spiked plasma, and transferred into 200 μL of 100 mM HCl solution in acetonitrile, mixed and centrifuged. 50 μL of the supernatant was diluted 20 times with 95% acetonitrile, then 20 μL of diluted samples were separated on Waters SymmetryShield RP18 3.5 μm column (4.6×50 mm) using gradient of acetonitrile (0.1% TFA) in water (0.1% TFA), flow 1.5 mL/min. Peak detection was performed by means of fluorescence detection with […] at 327 nm and emission at 420 nm. The area of the peak of Bendamustine was used to evaluate the rate of drug decomposition in the first order kinetics model.

[2] = system: Human breast carcinoma (MDA-MB 231) subcutaneous solid tumours; assay: Human breast carcinoma MDA-MB 231 s.c. solid tumours in nude mice (Example 27); format: in vivo, balb/c nu/nu mice; settings: 35 mg/kg
Procedure: (§1) balb/c mice aged 5 to 6 weeks were purchased from Charles River Canada Inc. The animals were kept 5 per cage with an air filter cover under light (12 light/dark cycle, light on at 6 H00) and temperature (22° C.±1° C.)-controlled environment. All manipulations of animals were performed under a sterilized laminar hood. The animals had ad libitum access to Purina mouse chow (Pro Lab PMH 4018, Trademark of Agway, Syracuse, N.Y.) and water. These animal studies were conducted according to the “Guidelines for Care and Use of Experimental Animals”. Tumor Cell Culture: Human breast cancer cells MDA-MB 231 were cultured in the appropriated culture medium. The cells were harvested in their logarithmic growth phase for the preparation of tumor implantation. Tumor Implantation: Human tumor or myeloma cells (2.5 to 5.0×10^6 cells) were implanted subcutaneously in 0.200 mL of medium containing 30% Matrigel on the two flanks of balb/c nu/nu mice through a 1 to 2 cm long 20-gauge needle. Treatments: 2 to 3 weeks after tumor cell implantation, animals that developed s.c. solid tumors were selected and divided into several homogeneous groups (n=5 animals per group or dose) with respect to tumor size (0.5 to 0.8 cm in diameter). The treatments were performed next day. The animals were dosed with the following dosing solutions. Control: (0.9%, NaCl) Compositions:
non-formulated Bendamustine, (35 mg/kg)
Bendamustine (35 mg/kg) in 40% SBECD, 1% protamine sulfate (formulated BM)
(§2) Subcutaneous solid tumor measurements were performed on the day of first injection and at 3- to 4-day intervals thereafter. The two largest perpendicular diameters of each tumor were measured with calipers and tumor sizes were estimated using the formula: TV=L×W/2 where TV: tumor volume; L: length; W: width. The body weights of animals were also noted.

[3] = Pharmacokinetics of bendamustine dosed to rats, composition with SBECD and LMWP (Example 25); format: in vivo, Female Sprague-Dawley rats; settings: i.v. 10 mg/kg
Procedure: Control: 5 mg/mL bendamustine hydrochloride, 10.2 mg/mL of mannitol in 0.9% NaCl; dose of 10 mg/kg
5 mg/mL bendamustine hydrochloride, 20% w/w sodium sulfobutyl ether β-cyclodextrin, 10.2 mg/g mannitol in water; dose of 10 mg/kg.
5 mg/mL bendamustine hydrochloride, 20% w/w sodium sulfobutyl ether β-cyclodextrin, 1% LMWP, 10.2 mg/g mannitol in water; dose of 10 mg/kg.
Female Sprague-Dawley rats (250-350 g). The animals were kept three per cage with an air filter cover under light (12 h light/dark cycle, light on at 06 h00) and controlled temperature 22° C.+/−1° C. All manipulations with the animals were performed under a sterilized laminar hood. The animals had ad libitum access to Purina mouse chow and water. The animals were fasted overnight and anesthetized, before dosing. Dosing and Sampling: The bendamustine compositions and control were administered intravenously to rats via a tail vein. Blood samples were collected 5, 15, 30, 45 min, 1, 1.5, 2, 3 and 4 hrs post-injection. The rats were anesthetized by general inhalation of isoflurane. The blood samples were collected from the jugular vein with a heparinized tube and kept on ice. The sample was immediately centrifuged, and the plasma separated. The plasma samples were immediately extracted. Sample Extraction and Analysis: The plasma samples 0.100 mL were transferred to plastic tubes. The samples were extracted with 0.400 mL of 100 mM HCl in acetonitrile while being shaken vigorously for 30 seconds. The samples were centrifuged at 10000 RPM for 5 minutes. The supernatant was separated. The samples were frozen in dry ice and kept at −80° C. until HPLC analysis. The aliquots of 20 microliters were injected into HPLC for analysis. The HPLC Conditions: C18 reversed phase column 50×4.6 mm, Symmetry/Shield 3.5 micrometer Column temperature 30° C. Flow rate 1.5 mL/min Injection volume 20 microliters Fluorescence detection at wavelengths: excitation 327 nm, emission 420 nm Mobile phase: Buffer A: 5% acetonitrile 0.1% TFA Buffer B: 90% acetonitrile 0.1% TFA Run time: 10 min The pharmacokinetic profiles of Bendamustine for tested composition versus the control is shown in Table 9 below.

[4] = system: Human breast carcinoma MDA-MB 231 s.c. solid tumors; assay: Human breast carcinoma MDA-MB 231 s.c. solid tumors in nude mice (Example 28); format: in vivo, balb/c nu/nu mice; settings: for Tumor weight after treatment, Average (SEM): 30 mg/kg days 1, 2, 9, 10
Procedure: as §1, §2
The experiment was performed as described in example 27, using the following compositions for treatment:
non-formulated bendamustine, (30 mg/kg)
Bendamustine (30 mg/kg) in 40% SBECD (formulated BM)
The treatment was performed on days 1, 2, 9, and 10.

Cn1c(CCCC(=O)O)nc2cc(N(CCCl)CCCl)ccc21 [BM, 4-[5-[bis(2-chloroethyl)amino]-1-methylbenzimidazol-2-yl]butanoic acid]
half-life at 0.015 mg/mL [1]: 2.05 h | Tumor weight after treatment, Average (SEM) ([2]; day 0): 0.237 (0.008) g | Tumor weight after treatment, Average (SEM) ([2]; day 2): 0.250 (0.028) g | Tumor weight after treatment, Average (SEM) ([2]; day 4): 0.294 (0.027) g | Tumor weight after treatment, Average (SEM) ([2]; day 7): 0.313 (0.030) g | Tumor weight after treatment, Average (SEM) ([2]; day 9): 0.349 (0.038) g | Tumor weight after treatment, Average (SEM) ([2]; day 11): 0.417 (0.046) g | Inhibition % vs control (on day 14) ([2]; day 14): 70.2% | Tumor volume on day 14 ([2]; day 14): 0.54 ± 0.06 g | Tumor weight after treatment, Average (SEM) ([2]; day 14): 0.537 (0.055) g | Body weight on day 14 ([2]; nude mice with MDA-MB 231 tumours): 18.1 ± 0.39 g | concentration at 1 h ([3]; female, Sprague-Dawley, rat, plasma, iv, 1 h post injection, read-out: Concentration of bendamustine in rat plasma, Mean (SEM)): 47 ng/mL | concentration at 3 h ([3]; female, Sprague-Dawley, rat, plasma, iv, 3 h post injection, read-out: Concentration of bendamustine in rat plasma, Mean (SEM)): 0 ng/mL | Concentration of bendamustine in rat plasma, Mean (SEM) ([3]; 0.08 h post injection): 6045 (388) ng/mL | Concentration of bendamustine in rat plasma, Mean (SEM) ([3]; 0.25 h post injection): 2428 (250) ng/mL | Concentration of bendamustine in rat plasma, Mean (SEM) ([3]; 0.5 h post injection): 520 (105) ng/mL | Concentration of bendamustine in rat plasma, Mean (SEM) ([3]; 0.75 h post injection): 145 (35) ng/mL | Concentration of bendamustine in rat plasma, Mean (SEM) ([3]; 1.5 h post injection): 8 (1) ng/mL | Concentration of bendamustine in rat plasma, Mean (SEM) ([3]; 2 h post injection): 2 (1) ng/mL | Tumor weight after treatment, Average (SEM) ([4]; day 0): 0.203 (0.028) g | Tumor weight after treatment, Average (SEM) ([4]; day 2): 0.238 (0.023) g | Tumor weight after treatment, Average (SEM) ([4]; day 5): 0.267 (0.022) g | Tumor weight after treatment, Average (SEM) ([4]; day 7): 0.313 (0.028) g | Tumor weight after treatment, Average (SEM) ([4]; day 9): 0.388 (0.045) g | Tumor weight after treatment, Average (SEM) ([4]; day 12): 0.497 (0.060) g | Tumor weight after treatment, Average (SEM) ([4]; day 14): 0.550 (0.075) g | Tumor weight after treatment, Average (SEM) ([4]; day 16): 0.594 (0.084) g | Tumor weight after treatment, Average (SEM) ([4]; day 19): 0.684 (0.098) g | Real Tumor weight on day 19 in autopsy ([4]; 30 mg/kg, Day 1, 2, 9, 10): 0.275 ± 0.052 g | Tumor weight on day 19 estimated from measurements of the tumor size ([4]; 30 mg/kg, Day 1, 2, 9, 10): 0.684 ± 0.10 g
